In one assay the test system is lung ECs. Briefly: ex vivo isolated buffer-perfused mouse lung vWF secretion (ELISA of perfusate). How it is done: Anesthetized GNA12^−/−, GNA12^−/−/EC GNA13^−/−, GNAq^−/−, and GNAq^−/−/EC GNA11^−/− mice were instrumented with a tracheal tube, cannulated via pulmonary artery, and perfused with warmed Krebs buffer at a rate of 1 ml/min for 5 minutes to remove residual blood constituents followed by treatment for 20 minutes with 2 ml recirculating Krebs buffer to assess constitutive vWF secretion. […] Following lung perfusion, lungs were minced and snap-frozen in liquid nitrogen for subsequent determination of whole lung extract vWF levels.
(§1) Mouse samples were collected and vWF level was measured by sandwich ELISA (Lu, et al. (2011) supra). One unit of vWF was defined as the amount present in 1 ml of mouse pooled normal plasma.
To address the role of G protein α subunits in constitutive (basal, spontaneous) vs. PAR-1-mediated vWF secretion from endothelial cells, vWF was measured in the ex vivo isolated buffer-perfused mouse lung (IPML). Lung preparations were used to exclude platelets as a source of vWF and also hepatic stellate cells as contributors of proteases that cleave ultra large vWF strings (Lenting, et al. (2012) supra). Ventilated WT, Gα12^−/−, and EC-Gαq^−/−; Gα11^−/− mouse lungs were cannulated and perfused with warmed recirculating RPMI media via pulmonary artery and left atrial catheters in situ. To assess basal vWF secretion, precleared blood-free lungs were perfused for 15 minutes with […] of 37° C. recirculating RPMI media (approximately the same volume as the normal mouse blood volume). Samples of the recirculating buffer were collected at 5 minute intervals over a period of 30 minutes and vWF (mU/ml perfusate) was measured by ELISA.
To assess the mechanism of thrombin-induced vWF release from ECs via PAR-1 activation, the PAR-1-specific synthetic peptide Thr-Phe-Leu-Leu-Arg (SEQ ID NO:3) was used to stimulate lung ECs. […] The initial slope of the vWF secretion curve was used to estimate the rate of vWF release following addition of Thr-Phe-Leu-Leu-Arg (SEQ ID NO:3), which was approximately 25 mU/mL/min in WT mouse lungs. […] Under these same conditions, basal vWF secretion in the pulmonary circulation of EC-Gαq^−/−; Gα11^−/− lungs was not different from that observed in WT mice, although Thr-Phe-Leu-Leu-Arg (SEQ ID NO:3)-induced vWF release was reduced by approximately 40%. […] The presence of EC WPB vWF in en face descending aorta and paraffin-embedded lung sections was verified by immunostaining and confocal microscopy. WT, Gα12^−/−, and Gα11^−/− tissues stained positive for vWF consistent with there being equivalent vWF synthesis and storage in WPBs in WT, Gα12^−/−, and Gα11^−/− mice.
In general terms: An ELISA detects its analyte on a solid surface through an enzyme-linked reagent.

The next assay has as its system HUVEC. As to the kind of experiment: vWF immunostaining / WPB quantification by confocal microscopy in HUVEC. In kind it is cell-based, human. How it is done:
Endothelial cells cultured on gelatin-coated glass bottom dishes were fixed with 4% paraformaldehyde, permeabilized with 0.1% TRITON X-100, blocked with 5% goat serum for 1 hour, and subsequently incubated with rabbit polyclonal antibody directed against vWF (0.5 μg/ml) or contral IgG overnight at 4° C. Coverslips were washed 3× with phosphate-buffered saline and incubated for 30 minutes at room temperature in the dark with ALEXAFLUOR 555 goat anti-mouse and ALEXAFLUOR 488-labeled goat anti-rabbit secondary antibody. Coverslips were washed with phosphate-buffered saline and embedded in mounting media (VECTASHIELD). Confocal microscopy was performed using a ZEISS LSM 510 Meta microscope (Carl Zeiss MicroImaging, Inc.) equipped with 488 nm and 543 nm excitation lasers and pinhole set to achieve 1 Airy unit.
Weibel-Palade Bodies (WPBs) were identified based on vWF immunofluorescence staining, size (approximately 3 μm long and 0.3 μm wide), and shape (elongated organelles). […] The number of WPBs per cell was counted (n=10-30) and the average fluorescence intensity per WPB/cell determined.
To distinguish whether the inhibitory effect of Gα12 depletion on vWF secretion is due to inhibition of vWF secretion as opposed to impaired vWF production or storage, vWF immunostaining and confocal microscopy of control siRNA and Gα12 siRNA-treated HUVECs was performed in presence or absence of thrombin stimulation.
To elucidate the role of Gα12 in WPBs exocytosis, HUVEC were transfected with constitutively-active GFP-tagged Gα12^Q229L mutant, GFP-tagged Gα12^WT, or GFP alone, and then confocal images of vWF immunostaining were quantified.
The role of Gα12/αSNAP interactions in regulation of vWF secretion was analyzed using a two-step experimental approach. First, a library of Gα12-substitution mutants (Meigs, et al. (2005) J. Biol. Chem. 280(18):18049-18055) was used, in which the primary sequence of Gα12 was replaced with the Asn-Ala-Ala-Ile-Arg-Ser (SEQ ID NO:5; NAAIRS cassette) to assess domain-specific in vitro binding of Myc-tagged Gα12^Q229L with or without ‘NAAIRS’ substitution of N-terminal amino acids 4-9 (ΔN4-9) or 10-15 (ΔN10-15) to GST-αSNAP. […] Secondly, to assess the role of Gα12 interaction with α-SNAP in vWF secretion, a GFP-tagged α-SNAP Binding Domain (aa 10-15) minigene (GFP-SBD) was constructed based on the identified Gα12•GST-αSNAP interaction.

The test system of the next assay is HPAEC. As to the kind of experiment: vWF secretion assay and ELISA in HPAEC. Format: cell-based, human. The conditions noted are these: peptide 1 μM, 1 hour pre-incubation, ELISA (FIG. 2), listed as Myr-SBD peptide. How it is done: vWF secretion assay was as previously described (Lui-Roberts, et al. (2005) J. Cell Biol. 170:627-636). In brief, 48 hours after transfection, endothelial cells were serum-deprived for 4 hours, washed, and incubated with fresh serum-free medium in presence or absence of 25 nM thrombin, A23187 (a calcium ionophore), or culture medium alone (vehicle control). Cell culture media was collected at various time points after agonist stimulation and centrifuged for 10 minutes at 13,000×g to remove cell debris. Supernatants were assayed for vWF content by ELISA. Cells were lysed to determine total vWF secreted per 10^6 cells. The concentration of vWF was expressed as mIU/ml/10^6 cells by relating the absorbance at 450 nm to a vWF standard curve. […] To prevent potential differences in releasable vWF, the same batch of HUVEC was used for all experiments, and control and siRNA treated cells were assessed at equivalent cell densities.
The role of G protein signaling in basal vs. PAR1-stimulated vWF secretion from confluent, low passage, and serum-deprived HUVECs and HPAECs was subsequently determined. […]
It was determined whether Gα12 interaction with αSNAP plays an important role in both basal and evoked VWF secretion from endothelial cell WPBs in vitro and in vivo. […] The effect of Gα12 and Myr-SBD on vWF secretion was assessed as was mortality associated with CLP/sepsis in rodent models. […]

The test system of another assay is plasma vWF. Briefly: plasma vWF after CLP or SHAM surgery in mice. Format: in vivo. The conditions noted are these: 24 hours after SHAM or CLP surgery, i.v. 100 μl of 100 μM (~5 μM) at time of surgery, vs Myr-Scrambled peptide, n=3/group. The procedure:
Mice were anaesthetized by ketamine/xylazine as above and ventilated according to conventional methods. […] Plasma was prepared from citrated blood samples via centrifugation at 3,000×g for 15 minutes at room temperature and stored at −80° C. until vWF measurement by ELISA. The anesthetized mouse was then euthanized for lung tissue collection as described below.
as §1
It was determined whether Gα12 interaction with αSNAP plays an important role in both basal and evoked VWF secretion from endothelial cell WPBs in vitro and in vivo. Myr-SBD peptide (1 μM; 1 hour pre-incubation) blocked both basal VWF secretion and that evoked by thrombin stimulation of HPAEC (FIG. 2). The effect of Gα12 and Myr-SBD on vWF secretion was assessed as was mortality associated with CLP/sepsis in rodent models. […] Importantly, reduced plasma vWF levels (FIG. 3B) were observed 24 hours after SHAM or CLP surgery in mice given 100 μl of 100 μM Myr-SBD (˜5 μM) as compared to mice treated with Myr-Scrambled peptide.

A short description of assay [1]: tail-snip blood loss (primary hemostasis). In kind it is in vivo. The settings on record: EC-Gα13−/−; Gα12−/− mice; i.v. 2 μg/g BW. How it is done: Mice were anaesthetized using 100 mg/kg ketamine and 5 mg/kg xylazine. Once unresponsive to tail pinch, 3-5 mm of the end of the tail was removed with a scalpel, the tail was immersed in 0.9% saline solution (37° C.), and time required for bleeding to stop was recorded (n=10 male mice/group, age 8-12 weeks) according to established methods (Lu, et al. (2011) Cell Res. 21:530-545). If no cessation of bleeding occurred after 30 minutes, the tail was cauterized with a cautery pencil and 30 minutes was recorded as the bleeding time. Blood loss during the bleeding time experiments was expressed as the accumulated amount of hemoglobin (Hb) bled into the container with phosphate-buffer saline in which tails were immersed. Hb (mg Hb/mL saline) was analyzed over the period of the experiment, using Hemocue HB201+ (Hemocue; Cypress, Calif.). Mice were allowed to recover in a clean cage. […]
Using megakaryocyte-restricted-Gα12/13 double knockout mice, it has been observed that Gα13-dependent signaling in platelets is important for hemostasis and thrombosis (Moers, et al. (2003) Nat. Med. 9(11):1418-1422). However, the molecular mechanisms and functional significance of endothelial cell Gα12 and Gα13 in primary hemostasis were not assessed. […] Hb accumulation from the cut tail immersed in saline solution was measured every 5 minutes for 15 minutes. […]

No end group written: not given here. *: point of attachment. Myristoyl = CCCCCCCCCCCCCC(=O)*

On to `CCN1C(=O)C=CC1=O` [NEM, N-Ethylmaleimide], for which, in the assay with lung ECs (1 mM added to recirculating lung perfusion system for 1 minute), the vWF secretion result is given as “abolished”.

Regarding “GFP-SBD: GFP-tagged α-SNAP Binding Domain (aa 10-15) minigene expressed in HUVEC (RCLLPA; not fully specified; also: GFP-tagged minigene (fusion))”, the “thrombin-induced WPB exocytosis” value in the assay on HUVEC (GFP-SBD minigene expressed in HUVEC) was “inhibited”. Further, in the assay with HUVEC (GFP-SBD-expressing HUVECs, control GFP cells significantly reduced (FIG. 1)), the “intracellular vWF staining following thrombin stimulation” value is on record as “remained unchanged”.

“Myr-Arg-Cys-Leu-Leu-Pro-Ala (Myristoyl-RCLLPA) [Myr-SBD]”: the “basal VWF secretion” value in the assay on HPAEC is listed as “blocks”. Also, in the assay on HPAEC (thrombin stimulation), the “thrombin-evoked VWF secretion” value is on record as “blocks”. In addition, the “plasma vWF levels” value in the assay with plasma vWF was “reduced”.

For “Thr-Phe-Leu-Leu-Arg (TFLLR) [Thr-Phe-Leu-Leu-Arg (SEQ ID NO:3)]”, in the assay with lung ECs (EC-Gαq−/−, Gα11−/− mouse lungs), the “reduction of peptide-induced vWF release vs WT” value is “approximately 40%”. Besides, the “rate of vWF secretion” value in the assay with lung ECs (Gα12−/− mouse lungs, 30 μM peptide in recirculating perfusate) came out at 3 mU/mL/min. Moreover, in the assay with lung ECs (WT mice, 30 μM peptide, remained constant for up to 1 hour), the “time to peak vWF level in perfusate” value was in the range of 10 to 15 min. Also, the “rate of vWF release (initial slope of vWF secretion curve)” value in the assay on lung ECs (WT mouse lungs, 30 μM peptide in recirculating perfusate) is reported as “approximately 25 mU/mL/min”.

On to “purified human plasma-derived vWF: purified human plasma-derived von Willebrand factor”, for which the “hemostasis (tail-snip blood loss)” value in assay [1] was “corrected”.

On to thrombin, for which the “GFP-positive control cells showing reduced vWF positive WPBs” value in the assay on HUVEC (HUVEC transfected with GFP alone, 25 nM thrombin for 15 minutes) worked out at 80%. Further, the “decrease in intracellular vWF staining” value with HUVEC (control siRNA HUVEC, thirty minutes after thrombin treatment) is listed as greater than 80%.
